This is an account of results in EP1854806A1, “Thioglycosides as pharmaceutically active agents” (MPG Max-Planck-Gesellschaft zur Förderung der …, priority 2006, dated 2007).

SMILES strings stand for the structures. Where two headings read alike, the source gives them in different places.

Common to all, as to type: cell-based
The target of test [1] is T1, human SGLT2 (Homo sapiens, UniProt P31639).
T1 construct: expressed in transfected cells; host or cells: CHO (Chinese hamster ovary) cells, stably transfected
T1 sequence (P31639 1-672): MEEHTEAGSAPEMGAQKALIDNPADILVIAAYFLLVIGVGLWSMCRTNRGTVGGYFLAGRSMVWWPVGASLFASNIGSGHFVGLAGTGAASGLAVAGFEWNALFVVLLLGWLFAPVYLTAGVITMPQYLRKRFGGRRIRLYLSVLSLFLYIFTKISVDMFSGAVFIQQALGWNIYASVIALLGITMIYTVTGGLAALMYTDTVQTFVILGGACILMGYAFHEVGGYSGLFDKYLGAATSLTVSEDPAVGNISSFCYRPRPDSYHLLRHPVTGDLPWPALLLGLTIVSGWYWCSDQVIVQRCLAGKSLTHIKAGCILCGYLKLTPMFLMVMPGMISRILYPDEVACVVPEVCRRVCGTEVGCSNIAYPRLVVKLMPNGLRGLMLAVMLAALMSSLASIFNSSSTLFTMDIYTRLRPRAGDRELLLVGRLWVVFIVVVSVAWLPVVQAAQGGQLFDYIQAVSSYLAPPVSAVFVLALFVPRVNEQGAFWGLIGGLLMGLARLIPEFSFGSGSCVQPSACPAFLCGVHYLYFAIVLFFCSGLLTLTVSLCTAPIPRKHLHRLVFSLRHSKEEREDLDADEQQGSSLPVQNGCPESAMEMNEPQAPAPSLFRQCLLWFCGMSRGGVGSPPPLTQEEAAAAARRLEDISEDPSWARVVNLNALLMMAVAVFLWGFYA
Briefly: SGLT activity (membrane translocation) by fluorescence resonance energy transfer (FRET). The following applies: for transport through hSGLT2 (FRET): result in words; for fluorescence ratios: hSGLT2 in CHO cells, 10 µm thioglucoside, normalized to non-transfected CHO cells, ratio higher than 1 = transported, n=16. The method, then: (§1) Stable transfected Chinese hamster ovary (CHO) cells that express human SGLT1 or human SGLT2 were seeded at a concentration of […] and maintained in culture for 2 days to allow the cells to form a confluent monolayer culture. For transport studies cells were seeded in 96-well microtiter scintiplates (PerkinElmer, Weisbaden, German). For fluorescence resonance energy transfer (FRET) analysis cells were seeded in flat-bottom, poly-D-lysine black-wall, clear bottom, 96-well plates (Becton Dickinson; Heidelberg, Germany).
(§2) SGLT activity, as indicated by membrane translocation, was assessed using fluorescence resonance energy transfer (FRET). Cells were incubated for 48 hours ar 37°C in a 5% CO2 atmosphere in growth medium. Cells were washed with 0.2 ml Dulbecco's phosphate-buffered saline (Invitrogen, Karlsruhe, Germany) and then incubated with 0.1 ml of a solution containing 5 µm CC2-DMPE and 0.02% pluronic acid in PBS. After incubation in the dark for 30 min at 25°C, cells were washed twice with 0.2 ml PBS. Afterwards, cells were incubated in the dark at 25°C for 30 minutes with 0.1 ml of a solution containing […] DiSBAC2(3). A t the end of the incubation period 1 mM of each thioglucoside was added and excited by 390 nm. Fluorescence emission was recorded at 460 and 580 nm. After a 20 second baseline reading, 0.1 ml of PBS containing 10 µM of each compound was added, and the fluorescence was calculated as the ratio F/F0 = [(A460/A580)/(I460/I580)] where A and I represent the reading after or before addition of each thioglucoside, respectively. For I, the readings form 2-5 seconds were averaged; and for A, readings from 3 seconds after the signal that had reached a plateau level (usually within 2-5 seconds) were also averaged. FRET values were expressed as relative fluorescence units (RFU).
(§3) The activity of the sodium-dependent D-glucose cotransport system was studied by changes in membrane potential induced by each of the eight thioglucosides (see Table 1) (10 µm). FRET values were normalized using the fluorescence signal obtained from non-transfected CHO cells.

Test [2] deals with T2, human SGLT1 (Homo sapiens, UniProt P13866).
T2 construct: expressed in transfected cells; host or cells: CHO (Chinese hamster ovary) cells, stably transfected
T2 sequence (P13866 1-664): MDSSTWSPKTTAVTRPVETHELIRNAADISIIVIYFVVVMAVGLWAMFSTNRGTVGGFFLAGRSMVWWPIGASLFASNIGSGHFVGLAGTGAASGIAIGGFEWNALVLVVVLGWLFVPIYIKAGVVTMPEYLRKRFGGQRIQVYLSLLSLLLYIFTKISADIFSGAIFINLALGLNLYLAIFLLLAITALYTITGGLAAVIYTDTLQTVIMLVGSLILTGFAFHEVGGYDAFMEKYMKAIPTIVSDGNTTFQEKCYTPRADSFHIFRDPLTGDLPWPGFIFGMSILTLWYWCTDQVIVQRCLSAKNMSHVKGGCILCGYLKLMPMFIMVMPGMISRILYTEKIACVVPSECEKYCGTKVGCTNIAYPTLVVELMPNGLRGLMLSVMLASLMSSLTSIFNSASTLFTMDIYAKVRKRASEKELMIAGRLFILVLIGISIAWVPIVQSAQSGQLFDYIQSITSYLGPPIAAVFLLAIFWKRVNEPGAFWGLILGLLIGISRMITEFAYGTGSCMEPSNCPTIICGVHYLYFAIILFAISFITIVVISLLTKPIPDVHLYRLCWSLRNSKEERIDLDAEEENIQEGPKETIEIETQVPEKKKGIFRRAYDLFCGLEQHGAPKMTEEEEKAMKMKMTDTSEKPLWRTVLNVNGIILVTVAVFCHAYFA
The test is described as above. The note with it: for transport through hSGLT1 (FRET): result in words; for fluorescence signal ratios: hSGLT1 in CHO cells, 10 µm thioglucoside, normalized to non-transfected CHO cells, ratio higher than 1 = transported, n=16. The method, then:
as §1, §2, §3

The target of test [3] is T1, human SGLT2. As to the kind of experiment: Inhibition of sodium-dependent D-glucose transport, [14C]AMG-uptake. The following applies: hSGLT2; for Ki: apparent inhibitory constant, Dixon plot. The procedure:
as §1
(§4) Sodium-dependent D-glucose transport was determined by means of α-methyl [^14C]D-glucopyranoside ([^14C]AMG, spec. Radioactivity 300 mCi/mmol) purchased from NEN (Bad Homburg, Germany). For the purpose of this study, Krebs-Ringer-Henseleit (KRH) solution containing 120 mM NaCl, 4.7 mM KCI, 1.2 mM MgCl2, 2.2 mM CaCl2, 10 mM Hepes (pH 7.4 with Tris) was used to assess sodium-dependent D-glucose transport. For sodium free conditions, KRH solution containing 120 mM N-methyl-glucamine (NMG) instead of NaCl (Na^+) was used to assess sodium-independent D-glucose transport. All chemicals were purchased from Sigma (Deisenhof, Germany).
(§5) Briefly, cells were rinsed three times with 200 µl KRH-Na^+ or KRH-NMG. Then, 100 µl per well of transport buffer containing KRH-NA^+ or KRH-NMG plus [^14C]AMG (0.1 µCi/µl) were added and incubated for 1 hour. […] Then, the cells were solubilized by adding 100 µl of ATPlite substrate solution (PerkinElmer, Boston, USA) and luminescence ATP detection was assessed using a MicroBeta Trilux (PerkinElmer). A standard curve was used to determine the amount of ATP as mg of protein. After 24 hours the microtiter plate was taken for scintillation counting of radioactive [^14C]AMG-uptake using a MicroBeta Trilux (PerkinElmer). Subsequently, the mean counts per minute (cpm) were calculated and converted to […] (pmol). The obtained radioactive counts were expressed as pmol/mg/hour. Sodium-dependent [14C]AMG-uptake was calculated by subtracting uptake under sodium-free conditions from the uptake obtained in the presence of sodium.
(§6) The inhibitory effect on SGLT transport was also analyzed by IC50 values. Dixon plot analysis was used for both estimation of the inhibition constant (Ki) and for identification of the mechanism of enzyme inhibition. Ki was determined by the point of intersection of two different substrate concentrations. Plots of the reciprocal of rate of metabolite formation (1/Rate) versus inhibitor concentration at each substrate concentration were prepared.

Test [4] concerns the target T2, human SGLT1. The test is described as above. The following applies: for inhibitory effect, hSGLT1 compared with hSGLT2: [14C]AMG-uptake, 10µM, n=16, p<0.001, result in words; for Ki: apparent inhibitory constant, Dixon plot. The method, then: as §1, §4, §5, §6

The term IC50 denotes the concentration needed to halve the response being measured. As for `C/C(=C\CC/C(C)=C/CS[C@@H]1O[C@H](CO)[C@@H](O)[C@H](O)[C@H]1O)CO` [Thioglucoside 1, 8-Hydroxygeranol-1'-thio-β-D-glucopyranoside], the “transport through hSGLT2 (FRET)” value on human SGLT2 [1] is reported as “not transported”. At human SGLT1 [2], the “transport through hSGLT1 (FRET)” value was “not transported”. For the same compound, the 50% inhibitory concentration (IC50) at human SGLT2 [3] turned out to be 12 µM; on human SGLT1 [4] (hSGLT1, read-out: IC50) it was 35 µM. The Ki at human SGLT2 [3] amounted to 30 nM; at human SGLT1 [4] (hSGLT1, read-out: Ki), 100 nM. The “inhibitory effect, hSGLT1 compared with hSGLT2” value on human SGLT1 [4] is “stronger for hSGLT1”.

Take `OCc1ccccc1S[C@@H]1O[C@H](CO)[C@@H](O)[C@H](O)[C@H]1O` [Thioglucoside 2, 2-Hydroxymethyl-phenyl-1'-thio-β-D-glucopyranoside]: on human SGLT2 [1], the “transport through hSGLT2 (FRET)” value was “not transported”. For the same compound, the “transport through hSGLT1 (FRET)” value on human SGLT1 [2] is reported as “not transported”. Further, at human SGLT2 [3], the IC50 amounted to 9 µM and the Ki is 10 nM. On human SGLT1 [4], the IC50 turned out to be 41 µM and the “inhibitory effect, hSGLT1 compared with hSGLT2” value was “stronger for hSGLT1”. Also, the Ki at human SGLT1 [4] (Ki, hSGLT1) turned out to be 383000 nM.

Take `OC[C@H]1O[C@@H](Sc2ccccc2)[C@H](O)[C@@H](O)[C@@H]1O` [Thioglucoside 3, Phenyl-1'-thio-β-D-glucopyranoside]: on human SGLT2 [1], the “transport through hSGLT2 (FRET)” value is listed as “significantly transported” and the fluorescence ratios is 1.21. Also, at human SGLT1 [2], the “transport through hSGLT1 (FRET)” value was “significantly transported” and the fluorescence signal ratios is listed as 1.15. Further, at human SGLT2 [3], the IC50 was 16 µM and the Ki was determined as 135000 nM. Further, on human SGLT1 [4], the IC50 was 4 µM and the “inhibitory effect, hSGLT1 compared with hSGLT2” value is reported as “stronger for hSGLT1”. Also, the Ki at human SGLT1 [4] (Ki, hSGLT1) stood at 80 nM.

The term inhibition denotes the change of the read-out against control, counted positive when it falls. As to `Cc1ccccc1S[C@@H]1O[C@H](CO)[C@@H](O)[C@H](O)[C@H]1O` [Thioglucoside 4, o-Tolyl-1'-thio-β-D-glucopyranoside], on human SGLT2 [1], the “transport through hSGLT2 (FRET)” value is recorded as “significantly transported” and the fluorescence ratios worked out at 1.63. In addition, the “transport through hSGLT1 (FRET)” value on human SGLT1 [2] is recorded as “significantly transported”. Besides, on human SGLT2 [3], the midpoint of inhibition, the IC50, lay at 18 µM and the Ki was 132000 nM. On human SGLT1 [4], the IC50 was 30 µM and the “inhibitory effect, hSGLT1 compared with hSGLT2” value is reported as “stronger for hSGLT1”. Also, the Ki at human SGLT1 [4] (Ki, hSGLT1) was 280 nM. Besides, at human SGLT1 [4] (read-out: [14C]AMG-uptake, % inhibition), the inhibition at 10 µM was > 70%.

For the compound `OCc1cccc(S[C@@H]2O[C@H](CO)[C@@H](O)[C@H](O)[C@H]2O)c1` [Thioglucoside 5, 3-Hydroxymethyl-phenyl-1'-thio-β-D-glucopyranoside], the fluorescence signal ratios at human SGLT1 [2] is 1.01. Further, the half-maximal inhibitory concentration (IC50) against human SGLT2 [3] was 12 µM; against human SGLT1 [4] it was 47 µM. Moreover, the Ki at human SGLT2 [3] was found to be 20 nM; on human SGLT1 [4] (Ki, hSGLT1), 120 nM.

As to `OCc1ccccc1S[C@@H]1O[C@H](CO)[C@H](O)[C@H](O)[C@H]1O` [Thioglucoside 6, 2-Hydroxymethyl-phenyl-1'-thio-β-D-galactopyranoside], the fluorescence ratios at human SGLT2 [1] was 1.32. Besides, the IC50 against human SGLT2 [3] worked out at 15 µM; at human SGLT1 [4] it was 120 µM. Also, the Ki at human SGLT2 [3] turned out to be 10 nM; at human SGLT1 [4] (Ki, hSGLT1) it was 140000 nM.

Regarding `Cc1ccc(S[C@@H]2O[C@H](CO)[C@@H](O)[C@H](O)[C@H]2O)cc1` [Thioglucoside 7, p-Tolyl-1'-thio-β-D-glucopyranoside], at human SGLT2 [1], the “transport through hSGLT2 (FRET)” value is on record as “significantly transported” and the fluorescence ratios was 4.22. Besides, on human SGLT1 [2], the “transport through hSGLT1 (FRET)” value was “significantly transported” and the fluorescence signal ratios is reported as 2.64. On human SGLT2 [3], inhibition was half-maximal at 32 µM (IC50) and the Ki stood at 175000 nM. Besides, the inhibition at 10 µM against human SGLT2 [3] (10µM, n=16) was > 70%. Further, the IC50 on human SGLT1 [4] was 52 µM. The Ki on human SGLT1 [4] (Ki, hSGLT1) worked out at 23000 nM.

For the compound `Cc1cccc(S[C@@H]2O[C@H](CO)[C@@H](O)[C@H](O)[C@H]2O)c1` [Thioglucoside 8, m-Tolyl-1'-thio-β-D-glucopyranoside], on human SGLT2 [1], the “transport through hSGLT2 (FRET)” value is “not transported”. Moreover, the “transport through hSGLT1 (FRET)” value on human SGLT1 [2] was “not transported”. The IC50 came to 11 µM against human SGLT2 [3] and 40 µM against human SGLT1 [4]. Moreover, the Ki is 20 nM at human SGLT2 [3] and 170 nM on human SGLT1 [4] (Ki, hSGLT1).

`O=C(CCc1ccc(O)cc1)c1c(O)cc(O)cc1O[C@@H]1O[C@H](CO)[C@@H](O)[C@H](O)[C@H]1O` [phlorizin, reference compound]: the “transport through hSGLT2 (FRET)” value at human SGLT2 [1] is “not transported”.
